Source: patent US6610675B1 (priority 1980, dated 2003)

Legend:
[1] = test system: granulation tissue formation caused by implantation of cotton pellets; assay: Granuloma formation test (local cotton pellet granuloma assay); type: in vivo, rat; conditions: for Relative potency (ED40) / Relative potency (ED60): chloromethyl 11β-hydroxy-17α-isopropoxycarbonyloxyandrost-4-en-3-one-17β-carboxylate = 1; for ED40: dose causing 40% inhibition of granulation tissue weight; for ED60: dose causing 60% inhibition of granulation tissue weight
Experimental: The test compound was dissolved in acetone and aliquots of varying concentrations were injected into cotton pellets. The pellets were dried and then one pellet was implanted beneath the skin of each test rat. Six days later, the animals were sacrificed and the granulation tissue (granuloma) which formed in and around the implanted pellet was removed, dried and weighed. In addition, the thymi and adrenals were removed and weighed.

[2] = test system: thymus weight in rats; assay: Thymus inhibition testing (subcutaneous administration); type: in vivo, rat; conditions: for TED50: dose required to achieve 50% inhibition of thymi weight
Experimental: Several further studies were undertaken to determine the effects of selected compounds of the invention on thymi weights in rats when the drugs were systemically administered. In each of these studies, male Sprague-Dawley rats were used. […] On the fifth day (48 hours following the last treatment), the animals were sacrificed and the thymi weights were recorded. […] It is evident that the higher the inhibition of thymus activity at a given dose, the more toxic the compound is.

[3] = Table XII, anti-inflammatory effect in cotton pellet granuloma
[4] = Table IX, 3 mg/kg/day s.c., three days
[5] = Table IX, 10 mg/kg/day s.c., three days
[6] = Table IX, 30 mg/kg/day s.c., three days
[7] = Table IX, 100 mg/kg/day s.c., three days
[8] = Table XII, hydrocortisone 17-butyrate = 1
[9] = Table XII, thymus inhibition effect, subcutaneously
[10] = dose causing 50% inhibition of granulation tissue weight
[11] = Table VII, 3 mg/kg/day s.c., three days
[12] = Table VII, 10 mg/kg/day s.c., three days
[13] = Table VII, 30 mg/kg/day s.c., three days
[14] = Table VII, 100 mg/kg/day s.c., three days
[15] = Table X, betamethasone 17-valerate = 1
[16] = Table X, dose required to achieve 40% inhibition of thymi weight, subcutaneous
[17] = Table VIII, 10 mg/kg/day s.c., three days

COC(=O)O[C@]1(C(=O)OCCl)[C@H](C)C[C@H]2[C@@H]3CCC4=CC(=O)C=C[C@]4(C)[C@@]3(F)[C@@H](O)C[C@@]21C [chloromethyl 9α-fluoro-11β-hydroxy-17α-methoxycarbonyloxy-16α-methylandrosta-1,4-dien-3-one-17β-carboxylate]
ED50 [1, 3]: 2.38 μg/pellet
Body weight gain [2, 4]: 18.8 ± 1.4 g
Thymus wt. [2, 4]: 426 ± 19 mg
Thymus wt. Decrease [2, 4]: 0.0%
Body weight gain [2, 5]: 13.8 ± 1.6 g
Thymus wt. [2, 5]: 354 ± 8 mg
Thymus wt. Decrease [2, 5]: 16.9%
Body weight gain [2, 6]: 12.0 ± 0.8 g
Thymus wt. [2, 6]: 282 ± 11 mg
Thymus wt. Decrease [2, 6]: 33.8%
Body weight gain [2, 7]: 9.8 ± 1.3 g
Thymus wt. [2, 7]: 206 ± 15 mg
Thymus wt. Decrease [2, 7]: 51.6%
Relative Potency (TED40) [2, 8]: 1/36
TED40 [2, 9]: 46.0 mg/kg

CC(C)OC(=O)O[C@]1(C(=O)OCCl)CC[C@H]2[C@@H]3CCC4=CC(=O)C=C[C@]4(C)[C@H]3[C@@H](O)C[C@@]21C [chloromethyl 11β-hydroxy-17α-isopropoxycarbonyloxy-androsta-1,4-dien-3-one-17β-carboxylate]
Body wt. gain ([1]; Table IV, 30 μg/pellet): 32.4 ± 1.2 g
Granulation tissue Dry wt. ([1]; Table IV, 30 μg/pellet): 51.0 ± 2.8 mg
Granulation tissue Dry wt. Inhibition ([1]; Table IV, 30 μg/pellet): 37.2%
Granulation tissue Wet wt. ([1]; Table IV, 30 μg/pellet): 432 ± 15 mg
Granulation tissue Wet wt. Inhibition ([1]; Table IV, 30 μg/pellet): 23.7%
Thymus wt. ([1]; Table IV, 30 μg/pellet): 523 ± 26 mg
Body wt. gain ([1]; Table IV, 100 μg/pellet): 35.0 ± 1.5 g
Granulation tissue Dry wt. ([1]; Table IV, 100 μg/pellet): 41.1 ± 5.8 mg
Granulation tissue Dry wt. Inhibition ([1]; Table IV, 100 μg/pellet): 49.4%
Granulation tissue Wet wt. ([1]; Table IV, 100 μg/pellet): 417 ± 27 mg
Granulation tissue Wet wt. Inhibition ([1]; Table IV, 100 μg/pellet): 26.3%
Thymus wt. ([1]; Table IV, 100 μg/pellet): 537 ± 31 mg
Body wt. gain ([1]; Table IV, 300 μg/pellet): 34.4 ± 1.1 g
Granulation tissue Dry wt. ([1]; Table IV, 300 μg/pellet): 38.1 ± 5.9 mg
Granulation tissue Dry wt. Inhibition ([1]; Table IV, 300 μg/pellet): 53.1%
Granulation tissue Wet wt. ([1]; Table IV, 300 μg/pellet): 369 ± 18 mg
Granulation tissue Wet wt. Inhibition ([1]; Table IV, 300 μg/pellet): 34.8%
Thymus wt. ([1]; Table IV, 300 μg/pellet): 525 ± 28 mg
Body wt. gain ([1]; Table IV, 1000 μg/pellet): 29.4 ± 1.5 g
Granulation tissue Dry wt. ([1]; Table IV, 1000 μg/pellet): 18.5 ± 2.4 mg
Granulation tissue Dry wt. Inhibition ([1]; Table IV, 1000 μg/pellet): 77.2%
Granulation tissue Wet wt. ([1]; Table IV, 1000 μg/pellet): 289 ± 12 mg
Granulation tissue Wet wt. Inhibition ([1]; Table IV, 1000 μg/pellet): 48.9%
Thymus wt. ([1]; Table IV, 1000 μg/pellet): 423 ± 26 mg
ED50 [1, 3]: 119 μg/pellet
Relative potency (ED40) [1]: 6.5
Relative potency (ED60) [1]: 2.3
ED40 [1]: 47 μg/pellet
ED50 [1, 10]: 119 μg/pellet
ED60 [1]: 301 μg/pellet
Body weight gain [2, 11]: 9.0 ± 0.9 g
Thymus [2, 11]: 377 ± 16 mg
Thymus Inhibition [2, 11]: 20.0%
Body weight gain [2, 12]: 6.2 ± 0.7 g
Thymus [2, 12]: 312 ± 23 mg
Thymus Inhibition [2, 12]: 33.8%
Body weight gain [2, 13]: 4.8 ± 1.4 g
Thymus [2, 13]: 257 ± 24 mg
Thymus Inhibition [2, 13]: 45.4%
Body weight gain [2, 14]: 0.3 ± 1.6 g
Thymus [2, 14]: 161 ± 19 mg
Thymus Inhibition [2, 14]: 65.8%
Relative Potency (TED40) [2, 15]: 0.02
Relative Potency (TED50) [2, 15]: 0.02
TED40 [2, 16]: 16.2 mg
TED50 ([2]; Table X, subcutaneous): 35.3 mg
Relative Potency (TED40) [2, 8]: 1/12
TED40 [2, 9]: 16.2 mg/kg

CC(C)OC(=O)O[C@]1(C(=O)OCCl)CC[C@H]2[C@@H]3CCC4=CC(=O)CC[C@]4(C)[C@H]3[C@@H](O)C[C@@]21C [chloromethyl 11β-hydroxy-17α-isopropoxycarbonyloxyandrost-4-en-3-one-17β-carboxylate]
Body wt. gain ([1]; Table IV, 100 μg/pellet): 34.9 ± 2.7 g
Granulation tissue Dry wt. ([1]; Table IV, 100 μg/pellet): 70.0 ± 6.0 mg
Granulation tissue Dry wt. Inhibition ([1]; Table IV, 100 μg/pellet): 13.8%
Granulation tissue Wet wt. ([1]; Table IV, 100 μg/pellet): 485 ± 36 mg
Granulation tissue Wet wt. Inhibition ([1]; Table IV, 100 μg/pellet): 14.3%
Thymus wt. ([1]; Table IV, 100 μg/pellet): 452 ± 29 mg
Body wt. gain ([1]; Table IV, 300 μg/pellet): 33.9 ± 1.6 g
Granulation tissue Dry wt. ([1]; Table IV, 300 μg/pellet): 50.9 ± 2.8 mg
Granulation tissue Dry wt. Inhibition ([1]; Table IV, 300 μg/pellet): 37.3%
Granulation tissue Wet wt. ([1]; Table IV, 300 μg/pellet): 431 ± 20 mg
Granulation tissue Wet wt. Inhibition ([1]; Table IV, 300 μg/pellet): 23.9%
Thymus wt. ([1]; Table IV, 300 μg/pellet): 469 ± 25 mg
Body wt. gain ([1]; Table IV, 1000 μg/pellet): 34.0 ± 2.6 g
Granulation tissue Dry wt. ([1]; Table IV, 1000 μg/pellet): 24.1 ± 2.7 mg
Granulation tissue Dry wt. Inhibition ([1]; Table IV, 1000 μg/pellet): 70.3%
Granulation tissue Wet wt. ([1]; Table IV, 1000 μg/pellet): 305 ± 16 mg
Granulation tissue Wet wt. Inhibition ([1]; Table IV, 1000 μg/pellet): 46.1%
Thymus wt. ([1]; Table IV, 1000 μg/pellet): 464 ± 30 mg
Body wt. gain ([1]; Table IV, 3000 μg/pellet): 32.4 ± 2.3 g
Granulation tissue Dry wt. ([1]; Table IV, 3000 μg/pellet): 20.3 ± 1.3 mg
Granulation tissue Dry wt. Inhibition ([1]; Table IV, 3000 μg/pellet): 75.0%
Granulation tissue Wet wt. ([1]; Table IV, 3000 μg/pellet): 292 ± 7 mg
Granulation tissue Wet wt. Inhibition ([1]; Table IV, 3000 μg/pellet): 48.4%
Thymus wt. ([1]; Table IV, 3000 μg/pellet): 459 ± 24 mg
ED50 [1, 3]: 460 μg/pellet
Relative potency (ED40) [1]: 1
Relative potency (ED60) [1]: 1
ED40 [1]: 307 μg/pellet
ED50 [1, 10]: 460 μg/pellet
ED60 [1]: 690 μg/pellet
Body weight gain [2, 11]: 14.7 ± 0.6 g
Thymus [2, 11]: 439 ± 18 mg
Thymus Inhibition [2, 11]: 6.8%
Body weight gain [2, 12]: 10.2 ± 0.7 g
Thymus [2, 12]: 386 ± 17 mg
Thymus Inhibition [2, 12]: 18.0%
Body weight gain [2, 13]: 6.8 ± 2.1 g
Thymus [2, 13]: 291 ± 22 mg
Thymus Inhibition [2, 13]: 38.2%
Body weight gain [2, 14]: 2.8 ± 1.8 g
Thymus [2, 14]: 185 ± 17 mg
Thymus Inhibition [2, 14]: 60.7%
Relative Potency (TED40) [2, 15]: 0.01
Relative Potency (TED50) [2, 15]: 0.01
TED40 [2, 16]: 31.0 mg
TED50 ([2]; Table X, subcutaneous): 58.5 mg
Relative Potency (TED40) [2, 8]: 1/24
TED40 [2, 9]: 31.0 mg/kg

CCOC(=O)O[C@]1(C(=O)OCCl)[C@@H](C)C[C@H]2[C@@H]3CCC4=CC(=O)C=C[C@]4(C)[C@@]3(F)[C@@H](O)C[C@@]21C [chloromethyl 17α-ethoxycarbonyloxy-9α-fluoro-11β-hydroxy-16β-methylandrosta-1,4-dien-3-one-17β-carboxylate]
Body wt. gain ([1]; Table V-a, 0.3 μg/pellet): 32.5 ± 1.1 g
Granulation tissue Dry wt. ([1]; Table V-a, 0.3 μg/pellet): 61.8 ± 5.7 mg
Granulation tissue Dry wt. Inhibition ([1]; Table V-a, 0.3 μg/pellet): 22.8%
Granulation tissue Wet wt. ([1]; Table V-a, 0.3 μg/pellet): 499 ± 36 mg
Granulation tissue Wet wt. Inhibition ([1]; Table V-a, 0.3 μg/pellet): 5.0%
Thymus wt. ([1]; Table V-a, 0.3 μg/pellet): 501 ± 29 mg
Body wt. gain ([1]; Table V-a, 1 μg/pellet): 36.3 ± 0.9 g
Granulation tissue Dry wt. ([1]; Table V-a, 1 μg/pellet): 57.0 ± 6.2 mg
Granulation tissue Dry wt. Inhibition ([1]; Table V-a, 1 μg/pellet): 28.8%
Granulation tissue Wet wt. ([1]; Table V-a, 1 μg/pellet): 437 ± 24 mg
Granulation tissue Wet wt. Inhibition ([1]; Table V-a, 1 μg/pellet): 16.8%
Thymus wt. ([1]; Table V-a, 1 μg/pellet): 566 ± 31 mg
Body wt. gain ([1]; Table V-a, 3 μg/pellet): 33.8 ± 1.3 g
Granulation tissue Dry wt. ([1]; Table V-a, 3 μg/pellet): 47.5 ± 5.0 mg
Granulation tissue Dry wt. Inhibition ([1]; Table V-a, 3 μg/pellet): 40.7%
Granulation tissue Wet wt. ([1]; Table V-a, 3 μg/pellet): 422 ± 32 mg
Granulation tissue Wet wt. Inhibition ([1]; Table V-a, 3 μg/pellet): 19.6%
Thymus wt. ([1]; Table V-a, 3 μg/pellet): 500 ± 27 mg
Body wt. gain ([1]; Table V-a, 10 μg/pellet): 31.1 ± 1.7 g
Granulation tissue Dry wt. ([1]; Table V-a, 10 μg/pellet): 34.8 ± 5.5 mg
Granulation tissue Dry wt. Inhibition ([1]; Table V-a, 10 μg/pellet): 56.6%
Granulation tissue Wet wt. ([1]; Table V-a, 10 μg/pellet): 370 ± 21 mg
Granulation tissue Wet wt. Inhibition ([1]; Table V-a, 10 μg/pellet): 29.5%
Thymus wt. ([1]; Table V-a, 10 μg/pellet): 421 ± 30 mg
Relative potency (ED40) [1]: 133
Relative potency (ED60) [1]: 38
ED40 [1]: 2.31 μg/pellet
ED50 [1, 10]: 6.45 μg/pellet
ED60 [1]: 18.01 μg/pellet
Body weight gain [2, 17]: 2.4 ± 1.8 g
Thymus wt. [2, 17]: 266 ± 20 mg
Thymus wt. Inhibition [2, 17]: 51.6%
